ChEMBL document CHEMBL1154412, “In vitro activity of telavancin against gram-positive clinical isolates recently obtained in Europe” (Antimicrob Agents Chemother, 2007)
Converted amounts (≈) assume the structure as drawn.

Columns and labels:
Assay type in all cases: functional
[1] = test system: Streptococcus sp. 'group A'; test: Antimicrobial activity against Streptococcus group A after 20 to 24 hrs by broth microdilution method
[2] = test system: Staphylococcus; test: Antimicrobial activity against methicillin-susceptible coagulase-negative Staphylococcus after 20 to 24 hrs by broth microdilution method
[3] = test system: Staphylococcus aureus; test: Antimicrobial activity against methicillin-resistant Staphylococcus aureus after 20 to 24 hrs by broth microdilution method
[4] = test system: Enterococcus faecalis; test: Antimicrobial activity against vancomycin-resistant Enterococcus faecalis after 20 to 24 hrs by broth microdilution method
[5] = test system: Enterococcus faecalis; test: Antimicrobial activity against vancomycin-susceptible Enterococcus faecalis after 20 to 24 hrs by broth microdilution method
[6] = test system: Staphylococcus aureus; test: Antimicrobial activity against methicillin-susceptible Staphylococcus aureus after 20 to 24 hrs by broth microdilution method
[7] = test system: Streptococcus pneumoniae; test: Antibacterial activity against penicillin-susceptible Streptococcus pneumoniae after 20 to 24 hrs by broth microdilution method
[8] = test system: Enterococcus faecium; test: Antibacterial activity against vancomycin-resistant Enterococcus faecium after 20 to 24 hrs by broth microdilution method
[9] = test system: Streptococcus pneumoniae; test: Antibacterial activity against penicillin-resistant Streptococcus pneumoniae after 20 to 24 hrs by broth microdilution method
[10] = test system: Staphylococcus; test: Antimicrobial activity against methicillin-resistant coagulase-negative Staphylococcus after 20 to 24 hrs by broth microdilution method
[11] = test system: Streptococcus viridans; test: Antimicrobial activity against Streptococcus viridans after 20 to 24 hrs by broth microdilution method
[12] = test system: Streptococcus sp. 'group B'; test: Antimicrobial activity against Streptococcus group B after 20 to 24 hrs by broth microdilution method
[13] = test system: Enterococcus faecium; test: Antibacterial activity against vancomycin-susceptible Enterococcus faecium after 20 to 24 hrs by broth microdilution method
[14] = test system: Streptococcus pneumoniae; test: Antibacterial activity against penicillin-intermediate Streptococcus pneumoniae after 20 to 24 hrs by broth microdilution method

| Compound | MIC50 [1] [µg/mL] | MIC90 [1] [µg/mL] | MIC50 [2] [µg/mL] | MIC90 [2] [µg/mL] | MIC50 [3] [µg/mL] | MIC90 [3] [µg/mL] | MIC50 [4] [µg/mL] | MIC50 [5] [µg/mL] | MIC90 [5] [µg/mL] | MIC50 [6] [µg/mL] | MIC90 [6] [µg/mL] | MIC50 [7] [µg/mL] | MIC90 [7] [µg/mL] | MIC50 [9] [µg/mL] | MIC50 [11] [µg/mL] | MIC90 [11] [µg/mL] | MIC50 [12] [µg/mL] | MIC90 [12] [µg/mL] | MIC50 [14] [µg/mL] | MIC90 [14] [µg/mL] | also measured |
| --- | --- | --- | --- | --- | --- | --- | --- | --- | --- | --- | --- | --- | --- | --- | --- | --- | --- | --- | --- | --- | --- |
| CCCCCCCCCC(=O)N[C@@H](Cc1c[nH]c2ccccc12)C(=O)N[C@H](CC(N)=O)C(=O)N[C@@H](CC(=O)O)C(=O)N[C@@H]1C(=O)NCC(=O)N[C@@H](CCCN)C(=O)N[C@@H](CC(=O)O)C(=O)N[C@H](C)C(=O)N[C@@H](CC(=O)O)C(=O)NCC(=O)N[C@H](CO)C(=O)N[C@@H]([C@H](C)CC(=O)O)C(=O)N[C@@H](CC(=O)c2ccccc2N)C(=O)O[C@@H]1C | 0.06 (≈ 0.037 µM) | 0.06 (≈ 0.037 µM) | 0.5 (≈ 0.309 µM) | 1 (≈ 0.617 µM) | 0.5 (≈ 0.309 µM) | 0.5 (≈ 0.309 µM) | 0.5 (≈ 0.309 µM) | 1 (≈ 0.617 µM) | 2 (≈ 1.23 µM) | 0.25 (≈ 0.154 µM) | 0.5 (≈ 0.309 µM) | 0.12 (≈ 0.074 µM) | 0.25 (≈ 0.154 µM) | 0.12 (≈ 0.074 µM) | 0.5 (≈ 0.309 µM) | 1 (≈ 0.617 µM) | 0.25 (≈ 0.154 µM) | 0.25 (≈ 0.154 µM) | 0.12 (≈ 0.074 µM) | 0.25 (≈ 0.154 µM) | MIC [4]: 0.5 µg/mL (≈ 0.309 µM); MIC90 [4]: 2 µg/mL (≈ 1.23 µM); MIC50 [8]: 2 µg/mL (≈ 1.23 µM); MIC90 [8]: 2 µg/mL (≈ 1.23 µM); MIC90 [9]: 0.12 µg/mL (≈ 0.074 µM); MIC50 [10]: 0.5 µg/mL (≈ 0.309 µM); MIC90 [10]: 0.5 µg/mL (≈ 0.309 µM); MIC50 [13]: 2 µg/mL (≈ 1.23 µM); MIC90 [13]: 4 µg/mL (≈ 2.47 µM) |
| CC1(C)S[C@@H]2[C@H](NC(=O)[C@H](N)c3ccccc3)C(=O)N2[C@H]1C(=O)O [AMPICILLIN] | – | – | – | – | – | – | 1 (≈ 2.86 µM) | 1 (≈ 2.86 µM) | 2 (≈ 5.72 µM) | – | – | – | – | – | – | – | – | – | – | – | MIC [4]: 1 µg/mL (≈ 2.86 µM); MIC90 [4]: 4 µg/mL (≈ 11.4 µM); MIC50 [8]: 128 µg/mL (≈ 366 µM); MIC90 [8]: 128 µg/mL (≈ 366 µM); MIC50 [13]: 64 µg/mL (≈ 183 µM); MIC90 [13]: 128 µg/mL (≈ 366 µM) |
| CO/N=C(\C(=O)N[C@@H]1C(=O)N2C(C(=O)O)=C(CSc3nc(=O)c(O)nn3C)CS[C@H]12)c1csc(N)n1 [CEFTRIAXONE] | 0.03 (≈ 0.0541 µM) | 0.03 (≈ 0.0541 µM) | – | – | – | – | – | – | – | – | – | 0.03 (≈ 0.0541 µM) | 0.03 (≈ 0.0541 µM) | 1 (≈ 1.8 µM) | 0.12 (≈ 0.216 µM) | 2 (≈ 3.61 µM) | 0.06 (≈ 0.108 µM) | 0.06 (≈ 0.108 µM) | 0.12 (≈ 0.216 µM) | 1 (≈ 1.8 µM) | MIC90 [9]: 2 µg/mL (≈ 3.61 µM) |
| CO/N=C(\C(=O)N[C@@H]1C(=O)N2C(C(=O)O)=C(COC(N)=O)CS[C@H]12)c1ccco1 [CEFUROXIME] | ≤ 0.12 | ≤ 0.12 | – | – | – | – | – | – | – | – | – | ≤ 0.12 | ≤ 0.12 | > 4 | ≤ 0.12 | 2 (≈ 4.71 µM) | ≤ 0.12 | ≤ 0.12 | 0.5 (≈ 1.18 µM) | 4 (≈ 9.43 µM) | MIC [1]: ≤ 0.12 µg/mL; MIC [7]: ≤ 0.12 µg/mL; MIC [9]: ≥ 4 µg/mL; MIC90 [9]: > 4 µg/mL; MIC [11]: ≤ 0.12 µg/mL; MIC [12]: ≤ 0.12 µg/mL |
| O=C(O)c1cn(C2CC2)c2cc(N3CCNCC3)c(F)cc2c1=O [CIPROFLOXACIN] | – | – | – | – | > 8 | > 8 | 1 (≈ 3.02 µM) | 1 (≈ 3.02 µM) | > 32 | 0.25 (≈ 0.754 µM) | 1 (≈ 3.02 µM) | – | – | – | – | – | – | – | – | – | MIC50 [8]: 32 µg/mL (≈ 96.6 µM); MIC50 [10]: 2 µg/mL (≈ 6.04 µM); MIC90 [10]: > 8 µg/mL |
| CCC[C@@H]1C[C@@H](C(=O)N[C@@H]([C@H]2O[C@H](SC)[C@H](O)[C@@H](O)[C@H]2O)[C@H](C)Cl)N(C)C1 [CLINDAMYCIN] | ≤ 0.03 | 0.06 (≈ 0.141 µM) | ≤ 0.5 | ≤ 0.5 | – | > 4 | – | – | – | ≤ 0.5 | ≤ 0.5 | 0.06 (≈ 0.141 µM) | 0.06 (≈ 0.141 µM) | > 0.25 | ≤ 0.03 | > 0.25 | 0.06 (≈ 0.141 µM) | 0.06 (≈ 0.141 µM) | 0.06 (≈ 0.141 µM) | > 0.25 | MIC [1]: ≤ 0.03 µg/mL; MIC [2]: ≤ 0.5 µg/mL; MIC [6]: ≤ 0.5 µg/mL; MIC90 [10]: > 4 µg/mL; MIC [11]: ≤ 0.03 µg/mL |
| CC[C@H]1OC(=O)[C@H](C)[C@@H](O[C@H]2C[C@@](C)(OC)[C@@H](O)[C@H](C)O2)[C@H](C)[C@@H](O[C@@H]2O[C@H](C)C[C@H](N(C)C)[C@H]2O)[C@](C)(O)C[C@@H](C)C(=O)[C@H](C)[C@@H](O)[C@]1(C)O [ERYTHROMYCIN] | 0.03 (≈ 0.0409 µM) | 0.06 (≈ 0.0818 µM) | 0.25 (≈ 0.341 µM) | > 16 | > 16 | – | – | – | – | 0.5 (≈ 0.681 µM) | > 16 | 0.03 (≈ 0.0409 µM) | 0.06 (≈ 0.0818 µM) | > 1 | 0.03 (≈ 0.0409 µM) | > 1 | 0.03 (≈ 0.0409 µM) | 0.5 (≈ 0.681 µM) | 0.03 (≈ 0.0409 µM) | > 1 | MIC50 [10]: > 16 µg/mL |
